Assay results as given in US20230227838A1, “ENHANCED CELL SURVIVAL AGAINST BIOTIC AND ABIOTIC STRESSES THROUGH SALICYLICK ACID-INDUCED NPR1 CONDENSATES” (priority 2020, published 2023).

B1: sim3: SUMOylation-deficient mutant of NPR1 (protein)
chain: MDTTIDGFADSYEISSTSFVATDNTDSSIVYLAAEQVLTGPDVSALQLLSNSFESVFDSPDDFYSDAKLVLSDGREVSFHRCVLSARSSFFKSALAAAKKEKDSNNTAAVKLELKEIAKDYEVGFDSVVTVLAYVYSSRVRPPPKGVSECADENCCHVACRPAVDFMLEVLYLAFIFKIPELITLYQRHLLDVVDKVVIEDTLVILKLANICGKACMKLLDRCKEIIVKSNVDMVSLEKSLPEELVKEIIDRRKELGLEVPKVKKHVSNVHKALDSDDIELVKLLLKEDHTNLDDACALHFAVAYCNVKTATDLLKLDLADVNHRNPRGYTVLHVAAMRKEPQLAASALEKGASASEATLEGRTALMIAKQATMAVECNNIPEQCKHSLKGRLCVEILEQEDKREQIPRDVPPSFAVAADELKMTLLDLENRVALAQRLFPTEAQAAMEIAEMKGTCEFIVTSLEPDRLTGTKRTSPGVKIAPFRILEEHQSRLKALSKTVELGKRFFPRCSAVLDQIMNCEDLTQLACGEDDTAEKRLQKKQRYMEIQETLKKAFSEDNLELGNSSLTDSTSSTSKSTGGKRSNRKLSHRRR
modifications: left off: small tags and cut ends
notes: SUMOylation-deficient mutant of NPR1

Key:
[1] = test system: total protein ubiquitination; experiment: Total ubiquitination in N. benthamiana expressing CUL3 and NPR1 or sim3; assay type: cell-based, Nicotiana benthamiana
Protocol: (§1) Protein analysis and IP. Recombinant protein analysis was performed using transient expression in N. benthamiana, or stable over-expression in transgenic Arabidopsis, or expression in E. coli. Total protein extraction from plants was performed by homogenizing leaf tissue in the plant extraction buffer [50 mM Tris-HCl (pH 7.5), 150 mM NaCl, 5 mM EDTA, 0.2% Triton X-100, 0.2% Nonidet P-40] supplemented with 1 mM PMSF, 100 μM MG132, and EDTA-free protease inhibitor cocktail (Roche). For ubiquitinated protein analysis in plants, 100 μM of DUB (deubiquitinase) inhibitor (LifeSensors) and 10 mM NEM were added. Next, the lysates were cleared by centrifugation at 14,000 rpm for 15 min followed by filtering through a 0.2 μm filter. […] Pull-downs or IP experiments were done on total protein extracts by incubating protein samples in the lysis buffer overnight with indicated affinity tag or antibody conjugated to agarose or magnetic beads: GFP-trap agarose beads (Chromotek) for GFP fusions; RFP-trap agarose beads (Chromotek) for mCherry fusions; anti-HA magnetic beads (ThermoFisher) for HA tag fusions; anti-DYKDDDDK coupled magnetic agarose (ThermoFisher) for FLAG tag fusions; and glutathione magnetic agarose (ThermoFisher) for GST fusions. Unless otherwise indicated, after pull-down/IP, beads were washed 3 times and proteins were eluted by boiling in the 2×SDS sample buffer. […]

ubiquitinated proteins = experiment: Accumulation of ubiquitinated proteins (α-Ub immunoblot of total protein); assay type: in vivo, Arabidopsis thaliana; conditions: WT; absent in npr1-2; SA for 6 hr
Protocol: as §1

EDS1 = experiment: Interaction with EDS1 (co-IP in planta, pull-down in E. coli); assay type: binding, Arabidopsis thaliana; conditions: in planta (1 mM SA 5 hr) and in E. coli
Description: Plasmid construction and E. coli-based ubiquitination: The coding sequences for all Arabidopsis genes were amplified from cDNA. Point mutations of AtNPR1 (AT1G64280) were generated using the QuikChange II site-directed mutagenesis kit (Agilent). Overlap PCR was used to generate the deletion/truncation mutations of AtCUL3A (AT1G26830) and AtNPR1. The WT and mutated coding sequences for all genes and gene fusions were sub-cloned into the pDONR207 gateway donor vector and confirmed by sequencing. The obtained entry vectors were recombined into either plant or E. coli destination vectors without or with an N- or C-terminal tag. For in planta expression, genes were recombined into the plant binary vectors pK7FWG2, pSITE-4NB and pLN462 to generate C-terminal eGFP, mCherry and HA fusions, respectively; into pK7WGF2, pEG201, pEG202, pEG203 and pEG204 to generate N-terminal eGFP, HA, FLAG, Myc and V5 fusions, respectively. […] For bimolecular fluorescence complementation (BiFC), entry vectors carrying the coding sequences of genes and their mutant variants were recombined into the pSITE-cEYFP-N1 binary vector for C-terminal fusion with the cYFP half (YC), or into the pSITE-nEYFP-C1 for N-terminal fusion with the nYFP half (YN). […]

Row | Molecule | total protein ubiquitination under dose response to SA ([1]; 3 mM SA) | accumulation of ubiquitinated proteins (ubiquitinated proteins) | interaction with EDS1 (EDS1) | baseline SA-dependent ubiquitination ([1]; compared with NPR1)
1 | O=C(O)c1ccccc1O [SA, salicylic acid] | reduction in ubiquitination | concentration-dependent accumulation of ubiquitinated proteins |  | 
2 | NPR1: wild-type Arabidopsis thaliana NPR1 protein, positive regulator of systemic acquired resistance |  |  | direct interaction | 
3 | B1 |  |  | could interact | lower
